Patent publication US20250333388A1, “OXADIAZOLONE COMPOUNDS AND HERBICIDAL COMPOSITIONS AND USES THEREOF” (SHANDONG BINNONG TECHNOLOGY CO., LTD., priority 2023, published 2025)

Columns and labels:
Format in all cases: in vivo
[1] = tested on: corn; assay: Safety testing on corn, stem and leaf spray in greenhouse; conditions: for Corn (%) safety (crop damage): stem and leaf spray
Protocol: (§1) The seeds of corn and rice were sown into nutrient soil in plastic cups, respectively, then covered with soil, compacted, watered, and further cultivated in a greenhouse by conventional methods. The stems and leaves of the crops were sprayed when the crops reached the 2- to 3-leaf stage. The test compounds of the present application were dissolved in acetone, followed by addition of Tween 80. The solution was then diluted with a certain amount of water to a certain solubility, and sprayed onto the plants using a spray tower. The test was repeated three times. After drying naturally in the shade, the plants were put in a greenhouse and managed according to conventional methods. The growth and development of corn and rice were observed, and the safety of the test agent on corn and rice was checked visually periodically. A safety grading standard was represented by 0-100%, with “O” representing no damage to crops, and “100%” representing complete killing or severe inhibition of crops.

[2] = tested on: rice; assay: Safety testing on rice, stem and leaf spray in greenhouse; conditions: for Rice (%) safety (crop damage): stem and leaf spray
Protocol: as §1

[3] = tested on: abutilon; assay: Test of herbicidal activity, post-seedling stem and leaf spray in greenhouse, abutilon; conditions: for herbicidal activity against abutilon compared with Control compounds A, B and C: at different doses, summary of Table 5; for Abutilon (%) control effect: post-seedling stem and leaf spray
Protocol: (§2) Seeds of broadleaf weeds (abutilon, Solanum nigrum) or gramineous weeds (crabgrass, barnyard grass) were sown into nutrient soil in plastic cups, respectively, and then covered with soil, compacted, watered, and further cultivated in a greenhouse by conventional methods. The stems and leaves of the weeds were sprayed when the weeds reached the 2- to 3-leaf stage. The test compounds of the present application were dissolved in acetone respectively, followed by addition of Tween 80. The solution was diluted with a certain amount of water to a certain solubility, and then sprayed onto the plants using a spray tower. The test was repeated three times. After drying naturally in the shade, the plants were put in a greenhouse and managed according to conventional methods. The growth and development of weeds were observed, and the control effect of the test agent on weeds was checked visually periodically, which was expressed by 0-100%, with “0” representing no control effect, and “100%” representing complete killing or severe inhibition.

[4] = tested on: Solanum nigrum; assay: Test of herbicidal activity, post-seedling stem and leaf spray in greenhouse, Solanum nigrum; conditions: for herbicidal activity against Solamum nigrum compared with Control compounds A, B and C: at different doses, summary of Table 5; for Solanum nigrum (%) control effect: post-seedling stem and leaf spray
Protocol: as §2

[5] = tested on: crabgrass; assay: Test of herbicidal activity, post-seedling stem and leaf spray in greenhouse, crabgrass; conditions: for herbicidal activity against crabgrass compared with Control compounds A, B and C: at different doses, summary of Table 5; for Crabgrass (%) control effect: post-seedling stem and leaf spray
Protocol: as §2

[6] = tested on: barnyard grass; assay: Test of herbicidal activity, post-seedling stem and leaf spray in greenhouse, barnyard grass; conditions: for herbicidal activity against barnyard grass compared with Control compounds A, B and C: at different doses, summary of Table 5; for Barnyard grass (%) control effect: post-seedling stem and leaf spray
Protocol: as §2

[7] = at different doses, as compared to Control compounds A, B, and C, summary of Table 6
[8] = dose 300 g a.i/ha, 0 = no control effect, 100% = complete killing or severe inhibition

| Compound | herbicidal activity against abutilon compared with Control compounds A, B and C [3] | Abutilon (%) control effect ([3]; dose 37.5 g a.i/ha) [%] | Abutilon (%) control effect ([3]; dose 75 g a.i/ha) [%] | Abutilon (%) control effect ([3]; dose 150 g a.i/ha) [%] | Abutilon (%) control effect [3, 8] [%] | herbicidal activity against Solamum nigrum compared with Control compounds A, B and C [4] | Solanum nigrum (%) control effect ([4]; dose 37.5 g a.i/ha) [%] | Solanum nigrum (%) control effect ([4]; dose 75 g a.i/ha) [%] | Solanum nigrum (%) control effect ([4]; dose 150 g a.i/ha) [%] | Solanum nigrum (%) control effect ([4]; dose 300 g a.i/ha) [%] | herbicidal activity against crabgrass compared with Control compounds A, B and C [5] | Crabgrass (%) control effect ([5]; dose 37.5 g a.i/ha) [%] | Crabgrass (%) control effect ([5]; dose 75 g a.i/ha) [%] | Crabgrass (%) control effect ([5]; dose 150 g a.i/ha) [%] | Crabgrass (%) control effect ([5]; dose 300 g a.i/ha) [%] | herbicidal activity against barnyard grass compared with Control compounds A, B and C [6] | Barnyard grass (%) control effect ([6]; dose 37.5 g a.i/ha) [%] | Barnyard grass (%) control effect ([6]; dose 75 g a.i/ha) [%] | Barnyard grass (%) control effect ([6]; dose 150 g a.i/ha) [%] | Barnyard grass (%) control effect ([6]; dose 300 g a.i/ha) [%] | other results |
| --- | --- | --- | --- | --- | --- | --- | --- | --- | --- | --- | --- | --- | --- | --- | --- | --- | --- | --- | --- | --- | --- |
| Cc1nn(Cc2c(S(=O)(=O)C(C)C)ccc(C(=O)c3c(C)nn(C)c3O)c2Cl)c(=O)o1 [Compound 100, 1,3-dimethyl-4-{2-chloro-3-[(5-methyl-2-oxo-1,3,4-oxadiazol-3 (2H)yl)methyl]-4-isopropylsulfonylbenzoyl}-5-hydroxypyrazole] | – | – | – | – | – | – | – | – | – | – | – | – | – | – | – | – | – | – | – | – | inhibitory effect on corn (crop safety) [1, 7]: no significant inhibitory effect; Corn (%) safety (crop damage) ([1]; dose 37.5 g a.i/ha): 0%; Corn (%) safety (crop damage) ([1]; dose 75 g a.i/ha): 0%; Corn (%) safety (crop damage) ([1]; dose 150 g a.i/ha): 0%; Corn (%) safety (crop damage) ([1]; dose 300 g a.i/ha, 0 = no damage to crops, 100% = complete killing or severe inhibition): 0%; inhibitory effect on rice (crop safety) [2, 7]: no significant inhibitory effect; Rice (%) safety (crop damage) ([2]; dose 37.5 g a.i/ha): 0%; Rice (%) safety (crop damage) ([2]; dose 75 g a.i/ha): 0%; Rice (%) safety (crop damage) ([2]; dose 150 g a.i/ha): 0%; Rice (%) safety (crop damage) ([2]; dose 300 g a.i/ha): 2% |
| Cc1nn(Cc2c(S(C)(=O)=O)ccc(C(=O)c3c(C)nn(C)c3OC(=O)c3cn(C)nc3C(F)(F)F)c2Cl)c(=O)o1 [Compound 166] | better herbicidal activities | 65 | 88 | 92 | 95 | better herbicidal activities | 60 | 85 | 90 | 93 | better herbicidal activities | 50 | 75 | 80 | 85 | better herbicidal activities | 55 | 80 | 85 | 90 | – |
| Cc1nn(Cc2c(S(C)(=O)=O)ccc(C(=O)c3c(C)nn(C)c3OC(=O)c3c(C(F)(F)F)nn(C)c3Cl)c2Cl)c(=O)o1 [Compound 204] | better herbicidal activities | 55 | 80 | 90 | 98 | better herbicidal activities | 52 | 70 | 90 | 97 | better herbicidal activities | 45 | 64 | 80 | 88 | better herbicidal activities | 50 | 70 | 85 | 90 | – |
| Cc1nn(Cc2c(S(C)(=O)=O)ccc(C(=O)c3c(C)nn(C)c3OC(=O)c3cnn(C)c3Cl)c2Cl)c(=O)o1 [Compound 218] | better herbicidal activities | 55 | 80 | 90 | 95 | better herbicidal activities | 50 | 70 | 90 | 95 | better herbicidal activities | 45 | 65 | 80 | 85 | better herbicidal activities | 50 | 70 | 85 | 90 | – |
